Data from patent US7803801B2, “Aminopyridine compounds having Syk inhibitory activity” (Japan Tobacco, Inc., priority 2005, dated 2010).
Counter-ions that a name gives are not always drawn.

Molecular target: GST-Syk Full Protein (human) (Homo sapiens, UniProt P43405)
Test: Syk kinase inhibition test (HTRF method)
Assay type: biochemical
Conditions: Tables 1-x, compounds A; read-out: sykHTRF ave IC50
Procedure: Syk Kinase Inhibition Test (HTRF Method)
After the compounds were serially diluted with dimethylsulfoxide (DMSO), 10 μL of those 10-fold diluted with kinase buffer (20 mM HEPES pH 7.0, 10 mM MgCl2, 50 mM NaCl, 1 mM 2-ME, 0.05% BSA) was added to opti-plate HTRF-96 (Packard) (final DMSO concentration: 2%). 20 μL of a substrate solution (kinase buffer as mentioned above containing Syk Specific-Peptide Substrate Biot-EDPDYEWPSA-NH2 (Peptide Laboratory) 625 nM, 250 μM ATP (SIGMA) was added (final substrate concentration 250 nM, 100 μM ATP), and further 20 μL of an enzyme solution (kinase buffer as mentioned above containing GST-Syk Full Protein (human) 16 nM) (final concentration 6.4 nM) was added and the mixture was immediately stirred with a plate shaker to start enzyme reaction. After reacted at room temperature (20 to 25° C.) for 30 minutes, the enzyme reaction was terminated by adding 100 μL/well of a buffer for terminating and detecting the reaction (30 mM HEPES pH 7.0, 150 mM KF, 0.15% BSA, 0.075% Tween-20, 75 mM EDTA) containing HTRF reagent (5 μg/ml XL665-Streptavidin (CIS bio), 170 ng/ml Eu(K)-anti-PhosphoTyrosin, PT-66 (CIS bio)) (final concentration 20 mM HEPES pH 7.0, 100 mM KF, 0.1% BSA, 0.05% Tween-20, 50 mM EDTA). After allowed to stand still at room temperature for 1 hour, inhibitory effect of a compound against Syk kinase enzymatic activity was evaluated by measuring 665/620 fluorescence ratio to excitation light at 337 nm by ARVO (Wallac).

IC50 [nM]	SMILES
< 100	Cc1ccnc(Nc2cccc(-c3cnc(N4CCC(CC(=O)O)CC4)s3)n2)c1 [Compound A-653, (1-{5-[6-(4-methylpyridin-2-ylamino)pyridin-2-yl]thiazol-2-yl}piperidin-4-yl)acetic acid]
< 100	CN(c1ncc(-c2cccc(Nc3cc(C(F)(F)F)ccn3)n2)s1)C(C)(C)c1ccc(C(=O)O)cc1 [Compound A-654, 4-[1-methyl-1-(N-methyl-N-{5-[6-(4-trifluoromethylpyridin-2-ylamino)pyridin-2-yl]thiazol-2-yl}amino)ethyl]benzoic acid]
< 100	CC(=CC(=O)O)CCCN(C)c1ncc(-c2cccc(Nc3cc(C(F)(F)F)ccn3)n2)s1 [Compound A-655, 3-methyl-6-(N-methyl-N-{5-[6-(4-trifluoromethylpyridin-2-ylamino)pyridin-2-yl]thiazol-2-yl}amino)hex-2-enoic acid dihydrochloride]
< 100	CC(=CC(=O)O)CCCN(C)c1ncc(-c2cccc(Nc3cc(C)ccn3)n2)s1 [Compound A-656, 3-methyl-6-(N-methyl-N-{5-[6-(4-methylpyridin-2-ylamino)pyridin-2-yl]thiazol-2-yl}amino)hex-2-enoic acid dihydrochloride]
< 100	CN(CCC/C=C/C(=O)O)c1ncc(-c2cccc(Nc3cc(C(F)(F)F)ccn3)n2)s1 [Compound A-657, (E)-6-(N-methyl-N-{5-[6-(4-trifluoromethylpyridin-2-ylamino)pyridin-2-yl]thiazol-2-yl}amino)hex-2-enoic acid dihydrochloride]
< 100	Cc1ccnc(Nc2cccc(-c3cnc(N4CCC[C@H]4C(=O)NCCO)s3)n2)c1 [Compound A-658, N-(2-hydroxyethyl)-(S)-1-{5-[6-(4-methylpyridin-2-ylamino)pyridin-2-yl]thiazol-2-yl}pyrrolidine-2-carboxamide]
100 to 1000	Cc1ccnc(Nc2cccc(-c3cnc(N4CCC[C@H]4C(=O)N4CCC(O)CC4)s3)n2)c1 [Compound A-659]
100 to 1000	Cc1ccnc(Nc2cccc(-c3cnc(N4CCC[C@H]4C(=O)NCC(C)(C)C)s3)n2)c1 [Compound A-660]
100 to 1000	Cc1ccnc(Nc2cccc(-c3cnc(N4CCC(NC(=O)C5CCOCC5)CC4)s3)n2)c1 [Compound A-661]
100 to 1000	Cc1ccnc(Nc2cccc(-c3cnc(N4CCC(NC(=O)C5CCC(O)CC5)CC4)s3)n2)c1 (stereo not shown) [Compound A-662]
< 100	Cc1ccnc(Nc2cccc(-c3cnc(N(CC(N)=O)C(C)C)s3)n2)c1 [Compound A-663, 2-(N-isopropyl-N-{5-[6-(4-methylpyridin-2-ylamino)pyridin-2-yl]thiazol-2-yl}amino)acetamide]
100 to 1000	Cc1ccnc(Nc2cccc(-c3cnc(CN4CCC[C@H]4C(=O)N(C)C)s3)n2)c1 [Compound A-664]
100 to 1000	Cc1ccnc(Nc2cccc(-c3cnc(N(CC(=O)NCC(F)(F)F)C4CCCCC4)s3)n2)c1 [Compound A-665]
100 to 1000	CNC(=O)[C@@H]1CCCN1Cc1ncc(-c2cccc(Nc3cc(C)ccn3)n2)s1 [Compound A-666]
100 to 1000	Cc1ccnc(Nc2cccc(-c3cnc(CN4CCC[C@H]4C(N)=O)s3)n2)c1 [Compound A-667]
< 100	Cc1ccnc(Nc2cccc(-c3cnc(N(C)C(C(N)=O)C(C)C)s3)n2)c1 (stereo not shown) [Compound A-668, 3-methyl-2-(N-methyl-N-{5-[6-(4-methylpyridin-2-ylamino)pyridin-2-yl]thiazol-2-yl}amino)butylamide]
100 to 1000	Cc1ccnc(Nc2cccc(-c3cnc(N(CC(N)=O)C4CCCCC4)s3)n2)c1 [Compound A-669]
100 to 1000	Cc1ccnc(Nc2cccc(-c3cnc(N4CCC(CC(C)(C)O)CC4)s3)n2)c1 [Compound A-670]
100 to 1000	Cc1ccnc(Nc2cccc(-c3cnc(N(C)C4CCN(C(=O)C(C)(C)C)CC4)s3)n2)c1 [Compound A-671]
100 to 1000	Cc1ccnc(Nc2cccc(-c3cnc(N(C)C4CCN(C(=O)C5CCC(O)CC5)CC4)s3)n2)c1 (stereo not shown) [Compound A-672]
100 to 1000	Cc1ccnc(Nc2cccc(-c3cnc(N(CCO)C4CCCCC4)s3)n2)c1 [Compound A-673]
100 to 1000	CNC(=O)C(C(C)C)N(C)c1ncc(-c2cccc(Nc3cc(C)ccn3)n2)s1 (stereo not shown) [Compound A-674]
100 to 1000	Cc1ccnc(Nc2cccc(-c3cnc(N(C)C(C(=O)N4CCC(O)CC4)C(C)C)s3)n2)c1 (stereo not shown) [Compound A-675]

IC50 [nM]	SMILES
100 to 1000	Cc1ccnc(Nc2cccc(-c3cnc(N(C)C(C(=O)NCC(F)(F)F)C(C)C)s3)n2)c1 (stereo not shown) [Compound A-676]
< 100	Cc1ccnc(Nc2cccc(-c3cnc(N4CCC(CCO)CC4)s3)n2)c1 [Compound A-677, 2-(1-{5-[6-(4-methylpyridin-2-ylamino)pyridin-2-yl]thiazol-2-yl}piperidin-4-yl)ethanol]
< 100	Cc1ccnc(Nc2cccc(-c3cnc(N(CCCCCO)C(C)C)s3)n2)c1 [Compound A-678, 5-(N-isopropyl-N-{5-[6-(4-methylpyridin-2-ylamino)pyridin-2-yl]thiazol-2-yl}amino)pentan-1-ol]
100 to 1000	O=C(O)CC1CCN(c2ncc(-c3cccc(Nc4ncccn4)n3)s2)CC1 [Compound A-679]
< 100	O=C(O)CC1CCN(c2ncc(-c3cccc(Nc4cnccn4)n3)s2)CC1 [Compound A-680, (1-{5-[6-(pyrazin-2-ylamino)pyridin-2-yl]thiazol-2-yl}piperidin-4-yl)acetic acid]
< 100	O=C(O)CC1CCN(c2ncc(-c3cccc(Nc4cc(CCO)ccn4)n3)s2)CC1 [Compound A-681, [1-(5-{6-[4-(2-hydroxyethyl)pyridin-2-ylamino]pyridin-2-yl}thiazol-2-yl)piperidin-4-yl]acetic acid dihydrochloride]
100 to 1000	O=C(O)CCC1CCN(c2ncc(-c3cccc(Nc4ccccn4)n3)s2)CC1 [Compound A-682]
100 to 1000	O=C(O)C1CCN(c2ncc(-c3cccc(Nc4ccccn4)n3)s2)CC1 [Compound A-683]
< 100	Cc1ccnc(Nc2cccc(-c3cnc(N4CCC(C(F)C(=O)O)CC4)s3)n2)c1 (stereo not shown) [Compound A-684, fluoro-(1-{5-[6-(4-methylpyridin-2-ylamino)pyridin-2-yl]thiazol-2-yl}piperidin-4-yl)acetic acid]
< 100	Cc1ccnc(Nc2cccc(-c3cnc(CN4CCC(C(N)=O)CC4)s3)n2)c1 [Compound A-685, 1-{5-[6-(4-methylpyridin-2-ylamino)pyridin-2-yl]thiazol-2-ylmethyl}piperidine-4-carboxamide]
100 to 1000	CNC(=O)C1CCN(Cc2ncc(-c3cccc(Nc4cc(C)ccn4)n3)s2)CC1 [Compound A-686]
100 to 1000	CNC(=O)CN(C)Cc1ncc(-c2cccc(Nc3cc(C)ccn3)n2)s1 [Compound A-687]
100 to 1000	Cc1ccnc(Nc2cccc(-c3cnc(CN(C)CC(=O)N(C)C)s3)n2)c1 [Compound A-688]
100 to 1000	Cc1ccnc(Nc2cccc(-c3cnc(CN(C)CC(=O)NCC(C)(C)C)s3)n2)c1 [Compound A-689]
100 to 1000	NC(=O)[C@@H]1CCCN1c1ncc(-c2cccc(Nc3ccccn3)n2)s1 [Compound A-690]
100 to 1000	CN(c1ncc(-c2cccc(Nc3ccccn3)n2)s1)C(C)(C)c1ccc(C(=O)O)cc1 [Compound A-691]
< 100	CCc1ccnc(Nc2cccc(-c3cnc(N4CCC(CC(=O)O)CC4)s3)n2)c1 [Compound A-692, (1-{5-[6-(4-ethylpyridin-2-ylamino)pyridin-2-yl]thiazol-2-yl}piperidin-4-yl)acetic acid dihydrochloride]
< 100	Cc1ccnc(Nc2cccc(-c3cnc(NC(C)C)s3)n2)c1 [Compound A-693, N-isopropyl-N-{5-[6-(4-methylpyridin-2-ylamino)pyridin-2-yl]thiazol-2-yl}amine]
100 to 1000	Cc1ccnc(Nc2cccc(-c3cnc(NCc4ccccc4)s3)n2)c1 [Compound A-694]
< 100	Cc1ccnc(Nc2cccc(-c3cnc(NCCN4CCOCC4)s3)n2)c1 [Compound A-695, N-{5-[6-(4-methylpyridin-2-ylamino)pyridin-2-yl]thiazol-2-yl}-N-(2-morpholin-4-ylethyl)amine]
100 to 1000	Cc1ccnc(Nc2cccc(-c3cnc(N(C)C4CCN(C(=O)NC5CCCCC5)CC4)s3)n2)c1 [Compound A-696]
< 100	Cc1ccnc(Nc2cccc(-c3cnc(CN(C)CC(N)=O)s3)n2)c1 [Compound A-697, 2-(N-methyl-N-{5-[6-(4-methylpyridin-2-ylamino)pyridin-2-yl]thiazol-2-ylmethyl}amino)acetamide]
< 100	CCC(C(=O)O)C1CCN(c2ncc(-c3cccc(Nc4cc(C)ccn4)n3)s2)CC1 (stereo not shown) [Compound A-698, 2-(1-{5-[6-(4-methylpyridin-2-ylamino)pyridin-2-yl]thiazol-2-yl}piperidin-4-yl)butyric acid]
